# Values of other authors in US20020022649A1, “STABLE PHARMACEUTICAL FORMULATION” (priority 1998, published 2002).
# Details: centchroman as a racemate
compound,measurement,value
"COc1ccc2c(c1)OC(C)(C)C(c1ccccc1)C2c1ccc(OCCN2CCCC2)cc1 (racemic) [centchroman, 3,4-trans-2,2-dimethyl-3-phenyl-4-[4-(2-pyrrolidin-1-yl)ethoxy)phenyl]-7-methoxychroman]","cholesterol lowering, serum concentrations",significant decrease of the serum concentrations
